Where a name gives a salt, the structure may show the parent alone.
The compounds below were run against IKZF2 (Helios) (Homo sapiens, UniProt Q96SW2+Q9UKS7) (assay: Prolabel quantification of IKZF2 protein levels in 293GT cells). Settings: 24 h, Pro-label assay, 293GT cells, 10 μM, read-out: IKZF2 % protein reduction at 10 μM, 24 h.
Type: cell-based

Sequence of IKZF2 (Helios) (Q9UKS7 whole entry): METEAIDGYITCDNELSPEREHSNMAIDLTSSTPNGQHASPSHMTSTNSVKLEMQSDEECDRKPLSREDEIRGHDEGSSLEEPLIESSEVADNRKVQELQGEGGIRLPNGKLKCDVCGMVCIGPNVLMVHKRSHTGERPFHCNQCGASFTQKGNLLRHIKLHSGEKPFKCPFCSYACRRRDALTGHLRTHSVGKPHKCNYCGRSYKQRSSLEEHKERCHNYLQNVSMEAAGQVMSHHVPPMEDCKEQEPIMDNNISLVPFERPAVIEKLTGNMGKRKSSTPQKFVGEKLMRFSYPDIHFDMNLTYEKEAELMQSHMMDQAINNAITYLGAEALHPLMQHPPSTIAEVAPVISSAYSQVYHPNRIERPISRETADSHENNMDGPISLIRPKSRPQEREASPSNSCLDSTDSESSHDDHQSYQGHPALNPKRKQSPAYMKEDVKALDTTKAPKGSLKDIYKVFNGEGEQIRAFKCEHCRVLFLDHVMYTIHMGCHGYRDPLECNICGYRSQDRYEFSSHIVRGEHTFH
Sequence of IKZF2 (Helios) (Q96SW2 whole entry): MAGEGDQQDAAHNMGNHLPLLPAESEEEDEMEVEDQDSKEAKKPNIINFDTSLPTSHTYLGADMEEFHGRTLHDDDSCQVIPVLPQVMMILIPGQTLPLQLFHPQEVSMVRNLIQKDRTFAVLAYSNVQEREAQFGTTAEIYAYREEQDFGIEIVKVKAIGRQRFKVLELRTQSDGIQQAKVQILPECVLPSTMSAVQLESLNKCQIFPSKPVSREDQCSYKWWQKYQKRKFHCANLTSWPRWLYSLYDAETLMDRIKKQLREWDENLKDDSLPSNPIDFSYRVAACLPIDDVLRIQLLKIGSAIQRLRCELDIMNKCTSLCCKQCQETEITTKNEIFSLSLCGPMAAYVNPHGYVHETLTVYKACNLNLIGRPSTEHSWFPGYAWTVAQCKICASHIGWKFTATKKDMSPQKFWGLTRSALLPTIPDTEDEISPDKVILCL
Sequence of IKZF2 (Helios) (Q16531 whole entry partner): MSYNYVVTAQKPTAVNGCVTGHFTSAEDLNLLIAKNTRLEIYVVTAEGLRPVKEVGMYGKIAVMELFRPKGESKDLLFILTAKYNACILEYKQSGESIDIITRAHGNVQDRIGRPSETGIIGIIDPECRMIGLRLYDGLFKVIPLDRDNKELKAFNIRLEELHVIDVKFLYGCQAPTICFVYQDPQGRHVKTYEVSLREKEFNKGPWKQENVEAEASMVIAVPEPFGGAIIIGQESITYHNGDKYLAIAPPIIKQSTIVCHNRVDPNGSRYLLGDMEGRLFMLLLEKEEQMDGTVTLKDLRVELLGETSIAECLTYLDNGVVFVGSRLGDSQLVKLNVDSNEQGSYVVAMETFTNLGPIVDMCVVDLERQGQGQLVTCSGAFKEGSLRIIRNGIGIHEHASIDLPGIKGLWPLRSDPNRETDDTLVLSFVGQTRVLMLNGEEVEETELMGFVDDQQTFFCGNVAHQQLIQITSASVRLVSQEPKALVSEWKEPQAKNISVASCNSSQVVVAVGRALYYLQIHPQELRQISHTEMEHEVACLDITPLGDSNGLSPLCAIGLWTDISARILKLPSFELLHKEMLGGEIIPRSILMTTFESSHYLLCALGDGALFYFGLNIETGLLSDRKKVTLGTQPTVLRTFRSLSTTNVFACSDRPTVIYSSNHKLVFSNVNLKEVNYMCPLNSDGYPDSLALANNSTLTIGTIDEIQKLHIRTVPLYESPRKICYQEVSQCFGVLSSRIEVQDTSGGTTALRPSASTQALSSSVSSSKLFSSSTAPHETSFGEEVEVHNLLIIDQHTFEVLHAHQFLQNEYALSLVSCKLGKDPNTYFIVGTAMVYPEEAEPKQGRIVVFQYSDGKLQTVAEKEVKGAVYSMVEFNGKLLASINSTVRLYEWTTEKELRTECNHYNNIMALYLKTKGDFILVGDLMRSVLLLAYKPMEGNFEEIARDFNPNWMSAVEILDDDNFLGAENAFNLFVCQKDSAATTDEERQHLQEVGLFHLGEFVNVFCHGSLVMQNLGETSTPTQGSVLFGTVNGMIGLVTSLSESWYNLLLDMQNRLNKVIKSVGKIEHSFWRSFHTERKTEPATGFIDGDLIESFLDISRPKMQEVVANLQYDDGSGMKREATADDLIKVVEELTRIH

SMILES | IKZF2 % protein reduction at 10 µM [%]
COc1ccc(CN[C@H]2CCCC[C@@H]2Oc2ccc3c(c2)CN(C2CCC(=O)NC2=O)C3=O)nc1 (stereo partly drawn) [I-91, 3-(5-(((1S,2S)-2-(((5-methoxypyridin-2-yl)methyl)amino)cyclohexyl)oxy)-1-oxoisoindolin-2-yl)piperidine-2,6-dione] | 58
CC(C)OC1CN([C@H]2CCCC[C@@H]2Oc2ccc3c(c2)CN(C2CCC(=O)NC2=O)C3=O)C1 (stereo partly drawn) [I-53, 3-(5-(((1S,2S)-2-(3-isopropoxyazetidin-1-yl)cyclohexyl)oxy)-1-oxoisoindolin-2-yl)piperidine-2,6-dione] | 88
O=C1CCC(N2Cc3cc(O[C@H]4CCCC[C@H]4NCc4ccccc4)ccc3C2=O)C(=O)N1 (stereo partly drawn) [I-2, 3-(5-(((1S,2R)-2-(benzylamino)cyclohexyl)oxy)-1-oxoisoindolin-2-yl)piperidine-2,6-dione] | 10
CCN(CC(F)F)[C@H]1CCC[C@@H]1Oc1ccc2c(c1)CN(C1CCC(=O)NC1=O)C2=O (stereo partly drawn) [I-1, 3-(5-(((1S,2S)-2-((2,2-difluoroethyl)(ethyl)amino)cyclopentyl)oxy)-1-oxoisoindolin-2-yl)piperidine-2,6-dione] | 10
COC1CCC(CN[C@H]2CCCC[C@@H]2Oc2ccc3c(c2)CN(C2CCC(=O)NC2=O)C3=O)CC1 (stereo partly drawn) [I-123, 3-(5-(((1S,2S)-2-(((4-methoxycyclohexyl)methyl)amino)cyclohexyl)oxy)-1-oxoisoindolin-2-yl)piperidine-2,6-dione] | 82
O=C1CCC(N2Cc3cc(O[C@H]4CCC[C@@H]4NCc4ccc5[nH]ccc5c4)ccc3C2=O)C(=O)N1 (stereo partly drawn) [I-174, 3-(5-(((1S,2S)-2-(((1H-indol-5-yl)methyl)amino)cyclopentyl)oxy)-1-oxoisoindolin-2-yl)piperidine-2,6-dione] | 86
CC1(C)CCCN([C@@H]2CCC[C@H]2Oc2ccc3c(c2)CN(C2CCC(=O)NC2=O)C3=O)C1 (single isomer, unassigned) [I-169] | 2
CC1(CN(CC2(C)COC2)[C@H]2CCC[C@@H]2Oc2ccc3c(c2)CN(C2CCC(=O)NC2=O)C3=O)COC1 (stereo partly drawn) [I-148, 3-(5-(((1S,2S)-2-(bis((3-methyloxetan-3-yl)methyl)amino)cyclopentyl)oxy)-1-oxoisoindolin-2-yl)piperidine-2,6-dione] | 33
O=C1CCC(N2Cc3cc(OC4CCCCC4N4CCC(F)(F)C4)ccc3C2=O)C(=O)N1 (single isomer, unassigned) [I-134, 3-(5-((2-(3,3-difluoropyrrolidin-1-yl)cyclohexyl)oxy)-1-oxoisoindolin-2-yl)piperidine-2,6-dione] | 56
CC1(CN[C@H]2CCCC[C@@H]2Oc2ccc3c(c2)CN(C2CCC(=O)NC2=O)C3=O)COC1 (stereo partly drawn) [I-87, 3-(5-(((1S,2S)-2-(((3-methyloxetan-3-yl)methyl)amino)cyclohexyl)oxy)-1-oxoisoindolin-2-yl)piperidine-2,6-dione] | 79
O=C1CCC(N2Cc3cc(O[C@H]4CCCC[C@@H]4N4CC(OCC5CC5)C4)ccc3C2=O)C(=O)N1 (stereo partly drawn) [I-51, 3-(5-(((1S,2S)-2-(3-(cyclopropylmethoxy)azetidin-1-yl)cyclohexyl)oxy)-1-oxoisoindolin-2-yl)piperidine-2,6-dione] | 90
O=C1CCC(N2Cc3cc(O[C@H]4CCCC[C@@H]4N4CC(OCC(F)F)C4)ccc3C2=O)C(=O)N1 (stereo partly drawn) [I-50, 3-(5-(((1S,2S)-2-(3-(2,2-difluoroethoxy)azetidin-1-yl)cyclohexyl)oxy)-1-oxoisoindolin-2-yl)piperidine-2,6-dione] | 85
O=C1CCC(N2Cc3cc(O[C@H]4CCCC[C@@H]4NCc4cncnc4)ccc3C2=O)C(=O)N1 (stereo partly drawn) [I-103, 3-(1-oxo-5-(((1S,2S)-2-((pyrimidin-5-ylmethyl)amino)cyclohexyl)oxy)isoindolin-2-yl)piperidine-2,6-dione] | 54
O=C1CCC(N2Cc3cc(O[C@H]4CCCCC[C@@H]4NCC4CCOCC4)ccc3C2=O)C(=O)N1 (stereo partly drawn) [I-65, 3-(1-oxo-5-(((1S,2S)-2-(((tetrahydro-2H-pyran-4-yl)methyl)amino)cycloheptyl)oxy)isoindolin-2-yl)piperidine-2,6-dione] | 76
O=C1CCC(N2Cc3cc(O[C@H]4CCC[C@@H]4N4Cc5ccncc5C4)ccc3C2=O)C(=O)N1 (stereo partly drawn) [I-196, 3-(5-(((1S,2S)-2-(1,3-dihydro-2H-pyrrolo[3,4-c]pyridin-2-yl)cyclopentyl)oxy)-1-oxoisoindolin-2-yl)piperidine-2,6-dione] | 68
CCN(C)[C@H]1CCCC[C@@H]1Oc1ccc2c(c1)CN(C1CCC(=O)NC1=O)C2=O (stereo partly drawn) [I-78, 3-(5-(((1S,2S)-2-(ethyl(methyl)amino)cyclohexyl)oxy)-1-oxoisoindolin-2-yl)piperidine-2,6-dione] | 50
COC1(CN[C@H]2CCCC[C@@H]2Oc2ccc3c(c2)CN(C2CCC(=O)NC2=O)C3=O)CCOCC1 (stereo partly drawn) [I-106, 3-(5-(((1S,2S)-2-(((4-methoxytetrahydro-2H-pyran-4-yl)methyl)amino)cyclohexyl)oxy)-1-oxoisoindolin-2-yl)piperidine-2,6-dione] | 51
COC1CC(CNC2CCCCC2Oc2ccc3c(c2)CN(C2CCC(=O)NC2=O)C3=O)C1 (single isomer, unassigned) [I-99] | 86
CC1(O)CN([C@H]2CCC[C@@H]2Oc2ccc3c(c2)CN(C2CCC(=O)NC2=O)C3=O)C1 (stereo partly drawn) [I-141, 3-(5-(((1S,2S)-2-(3-hydroxy-3-methylazetidin-1-yl)cyclopentyl)oxy)-1-oxoisoindolin-2-yl)piperidine-2,6-dione] | 77
O=C1CCC(N2Cc3cc(O[C@H]4CCCC[C@@H]4NCC45CC(F)(C4)C5)ccc3C2=O)C(=O)N1 (stereo partly drawn) [I-133, 3-(5-(((1S,2S)-2-(((3-fluorobicyclo[1.1.1]pentan-1-yl)methyl)amino)cyclohexyl)oxy)-1-oxoisoindolin-2-yl)piperidine-2,6-dione] | 81
CO[C@H]1CCC[C@@H]1Oc1ccc2c(c1)CN(C1CCC(=O)NC1=O)C2=O (stereo partly drawn) [I-26, 3-(5-(((1S,2S)-2-methoxycyclopentyl)oxy)-1-oxoisoindolin-2-yl)piperidine-2,6-dione] | 0
O=C1CCC(N2Cc3cc(O[C@@H]4CCC[C@H]4O)ccc3C2=O)C(=O)N1 (stereo partly drawn) [I-6, 3-(5-(((1R,2R)-2-hydroxycyclopentyl)oxy)-1-oxoisoindolin-2-yl)piperidine-2,6-dione] | 5
O=C1CCC(N2Cc3cc(O[C@H]4CCC[C@@H]4N4CC(Oc5ccccc5Cl)C4)ccc3C2=O)C(=O)N1 (stereo partly drawn) [I-177, 3-(5-(((1S,2S)-2-(3-(2-chlorophenoxy)azetidin-1-yl)cyclopentyl)oxy)-1-oxoisoindolin-2-yl)piperidine-2,6-dione] | 92
O=C1CCC(N2Cc3cc(O[C@H]4CCCC[C@@H]4NCc4ccc(F)cc4F)ccc3C2=O)C(=O)N1 (stereo partly drawn) [I-116, 3-(5-(((1S,2S)-2-((2,4-difluorobenzyl)amino)cyclohexyl)oxy)-1-oxoisoindolin-2-yl)piperidine-2,6-dione] | 65
O=C1CCC(N2Cc3cc(O[C@H]4CCC[C@@H]4N4CCOCC4)ccc3C2=O)C(=O)N1 (stereo partly drawn) [I-33, 3-(5-(((1S,2S)-2-morpholinocyclopentyl)oxy)-1-oxoisoindolin-2-yl)piperidine-2,6-dione] | 55
O=C1CCC(N2Cc3cc(O[C@H]4CCC[C@@H]4N4CCCOCCC4)ccc3C2=O)C(=O)N1 (stereo partly drawn) [I-167, 3-(5-(((1S,2S)-2-(1,5-oxazocan-5-yl)cyclopentyl)oxy)-1-oxoisoindolin-2-yl)piperidine-2,6-dione] | 75
COC1CCN([C@H]2CCC[C@@H]2Oc2ccc3c(c2)CN(C2CCC(=O)NC2=O)C3=O)CC1 (stereo partly drawn) [I-154, 3-(5-(((1S,2S)-2-(4-methoxypiperidin-1-yl)cyclopentyl)oxy)-1-oxoisoindolin-2-yl)piperidine-2,6-dione] | 83
O=C1CCC(N2Cc3cc(O[C@H]4CCCC[C@@H]4NCc4ccccn4)ccc3C2=O)C(=O)N1 (stereo partly drawn) [I-85, 3-(1-oxo-5-(((1S,2S)-2-((pyridin-2-ylmethyl)amino)cyclohexyl)oxy)isoindolin-2-yl)piperidine-2,6-dione] | 69
O=C1CCC(N2Cc3cc(O[C@H]4CCCC[C@@H]4N(Cc4ccccc4)Cc4ccccc4)ccc3C2=O)C(=O)N1 (stereo partly drawn) [I-34, 3-(5-(((1S,2S)-2-(dibenzylamino)cyclohexyl)oxy)-1-oxoisoindolin-2-yl)piperidine-2,6-dione] | 0

Same assay, conditions: 24 h, read-out: IKZF2 % protein reduction at 10 μM, 24 h

SMILES | IKZF2 % protein reduction at 10 µM [%]
O=C1CCC(N2Cc3cc(O[C@H]4CCC[C@@H]4N4C[C@@H]5[C@H](C4)[C@H]4CC[C@@H]5O4)ccc3C2=O)C(=O)N1 (stereo partly drawn) [I-188, 3-(5-(((1S,2S)-2-((3aR,4R,7S,7aS)-octahydro-2H-4,7-epoxyisoindol-2-yl)cyclopentyl)oxy)-1-oxoisoindolin-2-yl)piperidine-2,6-dione] | 70
N[C@H]1CCCC[C@@H]1Oc1ccc2c(c1)CN(C1CCC(=O)NC1=O)C2=O (stereo partly drawn) [I-15, 3-(5-(((1S,2S)-2-aminocyclohexyl)oxy)-1-oxoisoindolin-2-yl)piperidine-2,6-dione hydrochloride] | 50
CCN(CC)[C@H]1CCCCC[C@@H]1Oc1ccc2c(c1)CN(C1CCC(=O)NC1=O)C2=O (stereo partly drawn) [I-59, 3-(5-(((1S,2S)-2-(diethylamino)cycloheptyl)oxy)-1-oxoisoindolin-2-yl)piperidine-2,6-dione] | 39
CCN[C@H]1CCCCC[C@@H]1Oc1ccc2c(c1)CN(C1CCC(=O)NC1=O)C2=O (stereo partly drawn) [I-57, 3-(5-(((1S,2S)-2-(ethylamino)cycloheptyl)oxy)-1-oxoisoindolin-2-yl)piperidine-2,6-dione] | 80
O=C1CCC(N2Cc3cc(O[C@H]4CCC[C@@H]4N4CCC(OC(F)F)CC4)ccc3C2=O)C(=O)N1 (stereo partly drawn) [I-195, 3-(5-(((1S,2S)-2-(4-(difluoromethoxy)piperidin-1-yl)cyclopentyl)oxy)-1-oxoisoindolin-2-yl)piperidine-2,6-dione] | 85

Reference: patent US11192877B2, “3-(5-hydroxy-1-oxoisoindolin-2-yl)piperidine-2,6-dione derivatives and uses thereof” (Novartis AG, priority 2018, dated 2021)
